Experimental data reported in US7491844B2, “Therapeutic cyclopentane derivatives” (Allergan, Inc., priority 2006, dated 2009).

Legend:
EP4 receptors = target: T1, EP4 receptors (Homo sapiens, UniProt P35408); assay: Radioligand binding, [3H]PGE2, HEK-293 cells expressing EP4
T1 construct: expressed in transfected cells; host or cells: HEK-293 (plasma membrane fraction)
Description: HEK-293 cells stably expressing the human or feline FP receptor, or EP1, EP2, or EP4 receptors were washed with TME buffer, scraped from the bottom of the flasks, and homogenized for 30 sec using a Brinkman PT 10/35 polytron. TME buffer was added to achieve a final 40 ml volume in the centrifuge tubes (the composition of TME is 100 mM TRIS base, 20 mM MgCl2, […]; 10N HCl is added to achieve a pH of 7.4).
The cell homogenate was centrifuged at 19000 r.p.m. for 20 min at 4° C. using a Beckman Ti-60 rotor. The resultant pellet was resuspended in TME buffer to give a final 1 mg/ml protein concentration, as determined by Biorad assay. Radioligand binding competition assays vs. [^3H-]17-phenyl PGF2 ? (5 nM) were performed in a 100 μl volume for 60 min. Binding reactions were started by adding plasma membrane fraction. The reaction was terminated by the addition of 4 ml ice-cold TRIS-HCl buffer and rapid filtration through glass fiber GF/B filters using a Brandel cell harvester. The filters were washed 3 times with ice-cold buffer and oven dried for one hour.
[^3H-] PGE2 (specific activity 180 Ci mmol) was used as the radioligand for EP receptors. [^3H] 17-phenyl PGF2 ? was employed for FP receptor binding studies. […] 17-phenyl PGF2 ? and non-specific binding determined with 10^−5M of unlabeled PGE2, or 17-phenyl PGF2 ? , according to receptor subtype studied.

hEP4/Gqs5 = target: T2, hEP4/Gqs5 (Homo sapiens, UniProt P35408); assay: FLIPR calcium signal, HEK-293(EBNA) cells; type: cell-based; conditions: read-out: Ca2+ Signal-EC50 (nM) EP4
T2 construct: expressed in transfected cells; host or cells: HEK-293(EBNA)
T2 sequence (P35408 whole entry): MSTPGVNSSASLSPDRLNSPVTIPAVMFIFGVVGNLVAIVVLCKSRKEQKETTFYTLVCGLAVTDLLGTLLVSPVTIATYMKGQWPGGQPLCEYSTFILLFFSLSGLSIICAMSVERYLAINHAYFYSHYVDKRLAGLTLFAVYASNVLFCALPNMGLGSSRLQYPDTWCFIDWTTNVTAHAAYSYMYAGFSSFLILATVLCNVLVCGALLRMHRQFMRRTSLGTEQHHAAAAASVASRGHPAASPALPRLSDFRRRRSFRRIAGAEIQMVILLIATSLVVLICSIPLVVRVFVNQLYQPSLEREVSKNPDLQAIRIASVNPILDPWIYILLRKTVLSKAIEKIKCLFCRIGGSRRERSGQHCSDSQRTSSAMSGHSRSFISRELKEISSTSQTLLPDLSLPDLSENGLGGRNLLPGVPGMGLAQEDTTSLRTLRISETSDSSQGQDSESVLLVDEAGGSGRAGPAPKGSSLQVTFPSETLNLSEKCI
Description: (§1) HEK-293(EBNA) cells, stably expressing one type or subtype of recombinant human prostaglandin receptors (prostaglandin receptors expressed: hDP/Gqs5; hEP1; hEP2/Gqs5; hEP3A/Gqi5; hEP4/Gqs5; hFP; hiP; hTP), were cultured in 100 mm culture dishes in high-glucose DMEM medium containing 10% fetal bovine serum, 2 mM l-glutamine, 250 ? g/ml geneticin (G418) and 200 ? g/ml hygromycin B as selection markers, and 100 units/ml penicillin G, 100 ? g/ml streptomycin and 0.25 ? g/ml amphotericin B.
(§2) Cells were seeded at a density of 5×10^4 cells per well in Biocoat® Poly-D-lysine-coated black-wall, clear-bottom 96-well plates (Becton-Dickinson) and allowed to attach overnight in an incubator at 37° C. Cells were then washed two times with HBSS-HEPES buffer (Hanks Balanced Salt Solution without bicarbonate and phenol red, 20 mM HEPES, pH 7.4) using a Denley Cellwash plate washer (Labsystems). After 45 minutes of dye-loading in the dark, using the calcium-sensitive dye Fluo-4 AM at a final concentration of 2 ? M, plates were washed four times with HBSS-HEPES buffer to remove excess dye leaving 100 ? l in each well. Plates were re-equilibrated to 37° C. for a few minutes.
(§3) Cells were excited with an Argon laser at 488 nm, and emission was measured through a 510-570 nm bandwidth emission filter (FLIPR™, Molecular Devices, Sunnyvale, Calif.). Drug solution was added in a 50 ? l volume to each well to give the desired final concentration. The peak increase in fluorescence intensity was recorded for each well. On each plate, four wells each served as negative (HBSS-HEPES buffer) and positive controls (standard agonists: BW245C (hDP); PGE2 (hEP1; hEP2/Gqs5; hEP3A/Gqi5; hEP4/Gqs5); PGF2 ? (hFP); carbacyclin (hIP); U-46619 (hTP), depending on receptor). The peak fluorescence change in each drug-containing well was then expressed relative to the controls.
(§4) Compounds were tested in a high-throughput (HTS) or concentration-response (CoRe) format. In the HTS format, forty-four compounds per plate were examined in duplicates at a concentration of 10^−5 M. To generate concentration-response curves, four compounds per plate were tested in duplicates in a concentration range between 10^−5 and 10^−11 M. The duplicate values were averaged. In either, HTS or CoRe format each compound was tested on at least 3 separate plates using cells from different passages to give an n≧3.

hEP2/Gqs5 = target: T3, hEP2/Gqs5 (Homo sapiens, UniProt P43116); assay: FLIPR calcium signal, HEK-293(EBNA) cells; type: cell-based; conditions: value outside the parentheses; read-out: Ca2+ Signal-EC50 (nM) EP2
T3 construct: expressed in transfected cells; host or cells: HEK-293(EBNA)
T3 sequence (P43116 whole entry): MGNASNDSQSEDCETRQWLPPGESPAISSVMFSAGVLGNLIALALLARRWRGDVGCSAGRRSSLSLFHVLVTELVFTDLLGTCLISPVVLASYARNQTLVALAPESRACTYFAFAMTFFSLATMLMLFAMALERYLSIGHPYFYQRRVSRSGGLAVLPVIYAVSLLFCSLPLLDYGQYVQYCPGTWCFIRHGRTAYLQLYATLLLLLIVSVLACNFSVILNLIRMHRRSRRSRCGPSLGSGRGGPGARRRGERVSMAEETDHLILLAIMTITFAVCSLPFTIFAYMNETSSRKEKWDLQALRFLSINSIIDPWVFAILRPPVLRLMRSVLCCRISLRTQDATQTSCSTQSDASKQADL
Description: as §1, §2, §3, §4

hEP3A/Gqi5 = target: T4, hEP3A/Gqi5 (Homo sapiens, UniProt P43115); assay: FLIPR calcium signal, HEK-293(EBNA) cells; type: cell-based; conditions: read-out: Ca2+ Signal-EC50 (nM) EP3
T4 construct: expressed in transfected cells; host or cells: HEK-293(EBNA)
T4 sequence (P43115 1-390): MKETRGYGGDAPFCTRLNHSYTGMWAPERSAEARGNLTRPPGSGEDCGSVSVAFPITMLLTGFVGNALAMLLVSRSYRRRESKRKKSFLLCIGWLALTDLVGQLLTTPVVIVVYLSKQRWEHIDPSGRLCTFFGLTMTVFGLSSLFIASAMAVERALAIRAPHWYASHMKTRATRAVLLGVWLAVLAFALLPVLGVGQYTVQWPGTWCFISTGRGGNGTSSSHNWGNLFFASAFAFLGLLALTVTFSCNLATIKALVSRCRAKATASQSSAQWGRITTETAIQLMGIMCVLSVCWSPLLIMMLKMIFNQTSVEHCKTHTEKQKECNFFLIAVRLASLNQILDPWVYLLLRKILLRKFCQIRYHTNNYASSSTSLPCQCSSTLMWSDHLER
Description: as §1, §2, §3, §4

EP2 = EP2 (Homo sapiens, UniProt P43116); assay: Competition radioligand binding, [3H]PGE2, HEK 293 cells expressing EP2; set-up: expressed in transfected cells; host or cells: HEK 293 (membranes or whole cells)
EP2, sequence (P43116 whole entry): as the sequence (P43116 whole entry) above
Description: Competition binding experiments were performed in a medium containing Hank's balanced salt solution, Hepes 20 mM, pH 7.3, membranes (˜60 μg protein) or 2×10^5 cells from HEK 293 cells stably expressing human EP2 receptors, [^3H]PGE2 (10 nM) and various concentrations of test compounds in a total volume of 300 μl. Reaction mixtures were incubated at 23° C. for 60 min, and were filtered over Whatman GF/B filters under vacuum. Filters were washed three times with 5 ml ice-cold buffer containing 50 mM Tris/HCl (pH 7.3). Non-specific binding was estimated in the presence of excess unlabeled PGE2 (10 μM). Binding data fitted to the binding model for a single class of binding sites, using nonlinear regression analysis. IC50 values thus obtained were converted to Ki using the equation of Ki=(IC50/(1+[L]/KD) where [L] represents PGE2 concentration (10 nM) and KD the dissociation constant for [^3H]PGE2 at human EP2 receptors (40 nM). […]
The cell homogenate was centrifuged at 19000 r.p.m. for 20 min at 4° C. using a Beckman Ti-60 rotor. The resultant pellet was resuspended in TME buffer to give a final 1 mg/ml protein concentration, as determined by Biorad assay. […]
[^3H-] […] 17-phenyl PGF2 ? and non-specific binding determined with 10^−5M of unlabeled PGE2, or 17-phenyl PGF2 ? , according to receptor subtype studied.

hFP = target: T5, hFP (Homo sapiens, UniProt P43088); assay: FLIPR calcium signal, HEK-293(EBNA) cells; type: cell-based
T5 construct: expressed in transfected cells; host or cells: HEK-293(EBNA)
T5 sequence (P43088 whole entry): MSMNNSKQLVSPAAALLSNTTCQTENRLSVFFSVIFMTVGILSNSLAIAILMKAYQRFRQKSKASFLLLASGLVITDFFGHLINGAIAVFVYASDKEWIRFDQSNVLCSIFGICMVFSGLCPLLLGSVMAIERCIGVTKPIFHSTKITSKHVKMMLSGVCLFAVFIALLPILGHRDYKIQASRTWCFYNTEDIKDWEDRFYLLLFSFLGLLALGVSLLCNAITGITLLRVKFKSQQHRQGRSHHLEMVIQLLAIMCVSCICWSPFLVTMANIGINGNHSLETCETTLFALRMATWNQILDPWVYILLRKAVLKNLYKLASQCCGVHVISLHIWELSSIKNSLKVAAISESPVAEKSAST
Description: as §1, §2, §3, §4

hDP/Gqs5 = target: T6, hDP/Gqs5 (Homo sapiens, UniProt Q13258); assay: FLIPR calcium signal, HEK-293(EBNA) cells; type: cell-based
T6 construct: expressed in transfected cells; host or cells: HEK-293(EBNA)
T6 sequence (Q13258 1-359): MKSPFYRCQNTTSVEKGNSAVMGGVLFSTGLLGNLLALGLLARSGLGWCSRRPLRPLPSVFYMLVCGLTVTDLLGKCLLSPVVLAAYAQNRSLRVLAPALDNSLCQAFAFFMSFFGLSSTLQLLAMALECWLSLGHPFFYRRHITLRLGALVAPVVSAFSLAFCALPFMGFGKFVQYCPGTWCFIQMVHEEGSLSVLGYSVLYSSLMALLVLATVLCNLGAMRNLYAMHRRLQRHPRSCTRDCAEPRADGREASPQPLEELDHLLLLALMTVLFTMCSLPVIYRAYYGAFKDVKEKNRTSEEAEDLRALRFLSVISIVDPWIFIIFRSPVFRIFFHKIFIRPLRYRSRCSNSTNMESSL
Description: as §1, §2, §3, §4

hEP1 = target: T7, hEP1 (Homo sapiens, UniProt P34995); assay: FLIPR calcium signal, HEK-293(EBNA) cells; type: cell-based
T7 construct: expressed in transfected cells; host or cells: HEK-293(EBNA)
T7 sequence (P34995 1-402): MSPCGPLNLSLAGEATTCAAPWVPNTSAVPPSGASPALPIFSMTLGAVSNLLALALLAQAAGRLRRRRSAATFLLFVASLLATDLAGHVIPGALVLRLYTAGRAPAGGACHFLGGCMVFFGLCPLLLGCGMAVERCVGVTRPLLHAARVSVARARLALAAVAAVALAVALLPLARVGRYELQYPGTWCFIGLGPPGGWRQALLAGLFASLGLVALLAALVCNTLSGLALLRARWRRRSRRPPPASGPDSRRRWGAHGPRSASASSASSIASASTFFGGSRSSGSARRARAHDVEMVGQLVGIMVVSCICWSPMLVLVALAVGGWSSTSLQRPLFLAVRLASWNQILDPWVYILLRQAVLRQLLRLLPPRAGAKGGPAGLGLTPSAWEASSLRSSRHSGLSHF
Description: as §1, §2, §3, §4

hTP = target: T8, hTP (Homo sapiens, UniProt P21731); assay: FLIPR calcium signal, HEK-293(EBNA) cells; type: cell-based
T8 construct: expressed in transfected cells; host or cells: HEK-293(EBNA)
T8 sequence (P21731 1-343): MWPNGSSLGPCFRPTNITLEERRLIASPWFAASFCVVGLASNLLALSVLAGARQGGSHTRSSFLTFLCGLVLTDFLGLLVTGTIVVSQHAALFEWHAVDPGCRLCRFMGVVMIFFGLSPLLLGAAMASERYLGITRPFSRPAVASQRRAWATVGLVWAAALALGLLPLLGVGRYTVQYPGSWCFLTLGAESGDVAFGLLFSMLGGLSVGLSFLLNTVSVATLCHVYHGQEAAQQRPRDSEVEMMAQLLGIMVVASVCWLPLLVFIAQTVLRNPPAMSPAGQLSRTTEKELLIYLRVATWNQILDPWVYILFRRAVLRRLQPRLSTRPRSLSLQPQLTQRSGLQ
Description: as §1, §2, §3, §4

hIP = target: T9, hIP (Homo sapiens, UniProt P43119); assay: FLIPR calcium signal, HEK-293(EBNA) cells; type: cell-based
T9 construct: expressed in transfected cells; host or cells: HEK-293(EBNA)
T9 sequence (P43119 whole entry): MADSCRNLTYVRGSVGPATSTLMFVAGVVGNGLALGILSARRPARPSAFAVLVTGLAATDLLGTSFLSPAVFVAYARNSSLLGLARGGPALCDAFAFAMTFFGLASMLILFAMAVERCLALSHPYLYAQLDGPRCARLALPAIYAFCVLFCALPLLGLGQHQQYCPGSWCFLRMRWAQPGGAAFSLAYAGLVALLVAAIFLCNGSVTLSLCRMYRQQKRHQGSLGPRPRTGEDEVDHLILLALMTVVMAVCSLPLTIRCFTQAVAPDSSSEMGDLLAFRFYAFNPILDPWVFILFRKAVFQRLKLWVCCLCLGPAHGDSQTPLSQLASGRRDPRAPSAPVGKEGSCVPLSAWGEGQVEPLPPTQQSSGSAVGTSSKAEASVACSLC
Description: as §1, §2, §3, §4

T1 sequence (P35408 whole entry): as the sequence (P35408 whole entry) above

Structure (SMILES)	Ki (EP4 receptors) [nM]	EC50 (hEP4/Gqs5) [nM]	EC50 (hEP2/Gqs5) [nM]	EC50 (hEP3A/Gqi5) [nM]	Ki (EP2) [nM]	Ca2+ Signal-EC50 (nM) FP (hFP)	Ca2+ Signal-EC50 (nM) DP (hDP/Gqs5)	Ca2+ Signal-EC50 (nM) EP1 (hEP1)	Ca2+ Signal-EC50 (nM) TP (hTP)	Ca2+ Signal-EC50 (nM) IP (hIP)
CCCCCC(O)c1ccc([C@@H]2[C@@H](C/C=C\CCCC(=O)O)[C@H](Cl)C[C@@H]2Cl)cc1 (some centres unmarked) [compound 1]	2360	> 10000	427	449	504					
CCCCCC(O)c1ccc([C@@H]2[C@@H](C/C=C\CCCC(=O)O)[C@H](Cl)C[C@H]2Cl)cc1 (some centres unmarked) [Entry 2]	1400		15	25	25	notactive	notactive	notactive	notactive	notactive
